Laboratory results as given in patent US5004747A, “Isoquinolinones” (May & Baker Limited, priority 1988, dated 1991).

Biological target: T1, rat hepatic microsomal HMG CoA reductase (Rattus norvegicus, UniProt P51639)
T1 construct: rat hepatic microsomal HMG CoA reductase; from tissue; host or cells: rat liver microsomes
T1 sequence (P51639 1-887): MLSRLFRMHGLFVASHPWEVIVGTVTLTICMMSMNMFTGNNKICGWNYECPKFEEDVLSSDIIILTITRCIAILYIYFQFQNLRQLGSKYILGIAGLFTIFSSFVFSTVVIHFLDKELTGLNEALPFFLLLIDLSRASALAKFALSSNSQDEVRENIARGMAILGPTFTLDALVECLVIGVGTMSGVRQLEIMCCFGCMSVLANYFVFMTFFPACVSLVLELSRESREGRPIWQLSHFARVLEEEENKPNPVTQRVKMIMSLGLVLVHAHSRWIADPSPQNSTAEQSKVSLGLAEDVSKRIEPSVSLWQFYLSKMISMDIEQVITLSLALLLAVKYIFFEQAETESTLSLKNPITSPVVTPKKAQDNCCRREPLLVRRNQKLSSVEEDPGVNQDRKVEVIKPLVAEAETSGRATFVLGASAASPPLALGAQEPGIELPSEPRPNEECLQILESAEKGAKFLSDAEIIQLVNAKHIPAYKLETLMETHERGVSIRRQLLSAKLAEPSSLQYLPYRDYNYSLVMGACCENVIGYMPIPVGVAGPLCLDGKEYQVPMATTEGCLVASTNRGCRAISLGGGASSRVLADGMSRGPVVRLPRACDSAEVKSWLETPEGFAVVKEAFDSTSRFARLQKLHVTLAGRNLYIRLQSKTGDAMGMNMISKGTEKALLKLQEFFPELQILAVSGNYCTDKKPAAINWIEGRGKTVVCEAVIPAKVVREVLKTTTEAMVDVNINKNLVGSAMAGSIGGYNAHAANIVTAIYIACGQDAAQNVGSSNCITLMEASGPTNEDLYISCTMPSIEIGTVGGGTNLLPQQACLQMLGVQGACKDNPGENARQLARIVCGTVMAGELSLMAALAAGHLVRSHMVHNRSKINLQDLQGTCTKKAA
Assay: inhibition of rat hepatic microsomal HMG CoA reductase activity in vitro (Table I)
Type: biochemical
Details: for inhibition at 0.082 µg/mL: 0.082 micrograms/ml; for inhibition at 0.25 µg/mL: 0.25 micrograms/ml; for inhibition at 0.74 µg/mL: 0.74 micrograms/ml; for inhibition at 2.22 µg/mL: 2.22 micrograms/ml; for inhibition at 6.66 µg/mL: 6.66 micrograms/ml; for inhibition at 20 µg/mL: 20.0 micrograms/ml; for inhibition at 0.0274 µg/mL: 0.0274 micrograms/ml; for inhibition at 2 µg/mL: 2.0 micrograms/ml; for inhibition at 0.24 µg/mL: 0.24 micrograms/ml
Excerpt: In the table the concentrations of the test compounds are expressed in micrograms/ml.

CC(C)c1c(/C=C/[C@@H]2C[C@@H](O)CC(=O)O2)n(-c2ccc(Cl)cc2)c(=O)c2ccccc12 [R, (4R,6S)-(E)-6-(2-(2-(4-chlorophenyl)-4-isopropyl-1-oxo-1,2-dihydroisoquinolin-3-yl)ethen-1-yl)-4-hydroxy-3,4,5,6-tetrahydro-2H-pyran-2-one]
inhibition at 0.082 µg/mL: 21% | inhibition at 0.25 µg/mL: 35% | inhibition at 0.74 µg/mL: 56% | inhibition at 2.22 µg/mL: 78% | inhibition at 6.66 µg/mL: 91% | inhibition at 20 µg/mL: 97%

COc1ccc(-n2c(/C=C/[C@@H]3C[C@@H](O)CC(=O)O3)c(C(C)C)c3ccccc3c2=O)cc1 [N, (4R,6S)-(E)-4-hydroxy-6-(2-(2-(4-methoxyphenyl)-4-isopropyl-1-oxo-1,2-dihydroisoquinolin-3-yl)ethen-1-yl)-3,4,5,6-tetrahydro-2H-pyran-2-one]
inhibition at 0.0824 µg/mL (0.0824 micrograms/ml): 16% | inhibition at 0.25 µg/mL: 13% | inhibition at 0.74 µg/mL: 34% | inhibition at 2.22 µg/mL: 59% | inhibition at 6.66 µg/mL: 80%

COC(=O)C[C@H](O)C[C@H](O)/C=C/c1c(-c2ccc(F)cc2)c2ccccc2c(=O)n1C(C)C [Compound J, methyl (3R,5S)-(E)-3,5-dihydroxy-7-[4-(4-fluorophenyl)-2-isopropyl-1-oxo-1,2-dihydroisoquinolin-3-yl]hept-6-enoate]
inhibition at 0.0274 µg/mL: 13% | inhibition at 0.082 µg/mL: 28% | inhibition at 0.25 µg/mL: 55% | inhibition at 0.74 µg/mL: 79% | inhibition at 2.22 µg/mL: 92%

Cn1c(/C=C/C(O)CC(O)CC(=O)O)c(-c2ccccc2)c2ccccc2c1=O (centres unmarked) [BA, sodium (E)-3,5-dihydroxy-7-(2-methyl-1-oxo-4-phenyl-1,2-dihydroisoquinolin-3-yl)hept-6-enoate]
inhibition at 2 µg/mL: 0% | inhibition at 20 µg/mL: 61%

CC(C)n1c(/C=C/[C@@H](O)C[C@@H](O)CC(=O)O)c(-c2ccc(F)cc2)c2ccccc2c1=O [AF, sodium (3R,5S)-(E)-3,5-dihydroxy-7-(4-(4-fluorophenyl)-2-isopropyl-1-oxo-1,2-dihydroisoquinolin-3-yl)hept-6-enoate]
inhibition at 0.0274 µg/mL: 15% | inhibition at 0.082 µg/mL: 38% | inhibition at 0.25 µg/mL: 65% | inhibition at 0.74 µg/mL: 83% | inhibition at 2.22 µg/mL: 93% | inhibition at 6.66 µg/mL: 95%

CCOC(=O)CC(O)CC(O)/C=C/c1c(-c2ccc(F)cc2)c2ccccc2c(=O)n1C(C)C (centres unmarked) [Compound D, ethyl (E)-3,5-dihydroxy-7-[4-(4-fluorophenyl)-2-isopropyl-1-oxo-1,2-dihydroisoquinolin-3-yl]hept-6-enoate]
inhibition at 0.24 µg/mL: 11% | inhibition at 0.74 µg/mL: 35% | inhibition at 2.22 µg/mL: 62% | inhibition at 6.66 µg/mL: 85% | inhibition at 20 µg/mL: 94%

CC(C)c1c(/C=C/[C@@H](O)C[C@@H](O)CC(=O)O)n(-c2ccc(F)cc2)c(=O)c2ccccc12 [AG, sodium (3R,5S)-(E)-3,5-dihydroxy-7-(2-(4-fluorophenyl)-4-isopropyl-1-oxo-1,2-dihydroisoquinolin-3-yl)hept-6-enoate]
inhibition at 0.0274 µg/mL: 15% | inhibition at 0.082 µg/mL: 57% | inhibition at 0.25 µg/mL: 74% | inhibition at 0.74 µg/mL: 89% | inhibition at 2.22 µg/mL: 96%

CC(C)n1c(CC[C@@H]2C[C@@H](O)CC(=O)O2)c(-c2ccc(F)cc2)c2ccccc2c1=O [AI, (4R,6R)-6-(2-(4-(4-fluorophenyl)-2-isopropyl-1-oxo-1,2-dihydroisoquinolin-3-yl)ethyl)-4-hydroxy-3,4,5,6-tetrahydro-2H-pyran-2-one]
inhibition at 0.082 µg/mL: 16% | inhibition at 0.25 µg/mL: 38% | inhibition at 0.74 µg/mL: 62% | inhibition at 2.22 µg/mL: 81% | inhibition at 6.66 µg/mL: 92%

CC(C)c1c(/C=C/[C@@H]2C[C@@H](O)CC(=O)O2)n(-c2ccc(F)cc2)c(=O)c2ccccc12 [Compound I, (4R,6S)-(E)-4-hydroxy-6-[2-{2-(4-fluorophenyl)-4-isopropyl-1-oxo-1,2-dihydroisoquinolin-3-yl}ethen-1-yl]-3,4,5,6-tetrahydro-2H-pyran-2-one]
inhibition at 0.0274 µg/mL: 25% | inhibition at 0.082 µg/mL: 48% | inhibition at 0.25 µg/mL: 72% | inhibition at 0.74 µg/mL: 88% | inhibition at 2.22 µg/mL: 96%

CC(C)n1c(/C=C/C2CC(O)CC(=O)O2)c(-c2ccc(F)cc2)c2ccccc2c1=O (centres unmarked) [Compound G, (E)-4-hydroxy-6-[2-{4-(4-fluorophenyl)-2-isopropyl-1-oxo-1,2-dihydroisoquinolin-3-yl}ethenyl]-3,4,5,6-tetrahydro-2H-pyran-2-one]
inhibition at 0.082 µg/mL: 14% | inhibition at 0.25 µg/mL: 29% | inhibition at 0.74 µg/mL: 58% | inhibition at 2.22 µg/mL: 81% | inhibition at 6.66 µg/mL: 93% | inhibition at 20 µg/mL: 97%

CC(C)n1c(/C=C/C(O)CC(O)CC(=O)O)c(-c2ccc(F)cc2)c2ccccc2c1=O (centres unmarked) [Compound E, (E)-3,5-dihydroxy-7-[4-(4-fluorophenyl)-2-isopropyl-1-oxo-1,2-dihydroisoquinolin-3-yl]hept-6-enoic acid]
inhibition at 0.24 µg/mL: 15% | inhibition at 0.74 µg/mL: 28% | inhibition at 2.22 µg/mL: 61% | inhibition at 6.66 µg/mL: 82% | inhibition at 20 µg/mL: 94%

CC(C)c1c(/C=C/[C@@H]2C[C@@H](O)CC(=O)O2)n(C2CCCCC2)c(=O)c2ccccc12 [Z, (4R,6S)-(E)-6-(2-(2-cyclohexyl-4-isopropyl-1-oxo-1,2-dihydroisoquinolin-3-yl)ethen-1-yl)-4-hydroxy-3,4,5,6-tetrahydro-2H-pyran-2-one]
inhibition at 0.082 µg/mL: 50% | inhibition at 0.25 µg/mL: 77% | inhibition at 0.74 µg/mL: 88% | inhibition at 2.22 µg/mL: 96% | inhibition at 6.66 µg/mL: 99%

Cc1c(/C=C/[C@@H]2C[C@@H](O)CC(=O)O2)n(-c2ccc(F)cc2)c(=O)c2ccccc12 [V, (4R,6S)-(E)-6-(2-(2-(4-fluorophenyl)-4-methyl-1-oxo-1,2-dihydroisoquinolin-3-yl)ethen-1-yl)-4-hydroxy-3,4,5,6-tetrahydro-2H-pyran-2-one]
inhibition at 0.74 µg/mL: 10% | inhibition at 2.22 µg/mL: 40% | inhibition at 6.66 µg/mL: 67% | inhibition at 20 µg/mL: 85%

O=C1C[C@H](O)C[C@@H](/C=C/c2c(-c3ccc(F)cc3)c3ccccc3c(=O)n2CC2CC2)O1 [X, (4R,6S)-(E)-6-(2-(2-cyclopropylmethyl-4-(4-fluorophenyl)-1-oxo-1,2-dihydroisoquinolin-3-yl)ethen-1-yl)-4-hydroxy-3,4,5,6-tetrahydro-2H-pyran-2-one]
inhibition at 0.082 µg/mL: 16% | inhibition at 0.25 µg/mL: 35% | inhibition at 0.74 µg/mL: 61% | inhibition at 2.22 µg/mL: 83% | inhibition at 6.66 µg/mL: 92% | inhibition at 20 µg/mL: 96%

CC(C)n1c(/C=C/C(O)CC(O)CC(=O)O)c(-c2ccc(F)cc2)c2ccccc2c1=O (centres unmarked) [Compound F, sodium (E)-3,5-dihydroxy-7-[4-(4-fluorophenyl)-2-isopropyl-1-oxo-1,2-dihydroisoquinolin-3-yl]hept-6-enoate]
inhibition at 0.24 µg/mL: 37% | inhibition at 0.74 µg/mL: 59% | inhibition at 2.22 µg/mL: 80% | inhibition at 6.66 µg/mL: 91% | inhibition at 20 µg/mL: 97%

CC(C)c1c(CC[C@@H]2C[C@@H](O)CC(=O)O2)n(-c2ccc(F)cc2)c(=O)c2ccccc12 [AH, (4R,6R)-6-[2-{2-(4-fluorophenyl)-4-isopropyl-1-oxo-1,2-dihydroisoquinolin-3-yl}ethyl]-4-hydroxy-3,4,5,6-tetrahydro-2H-pyran-2-one]
inhibition at 0.082 µg/mL: 33% | inhibition at 0.25 µg/mL: 31% | inhibition at 0.74 µg/mL: 47% | inhibition at 2.22 µg/mL: 61% | inhibition at 6.66 µg/mL: 79% | inhibition at 20 µg/mL: 91%

Cn1c(/C=C/C(O)CC(O)CC(=O)O)c(-c2ccccc2)c2ccccc2c1=O (centres unmarked) [B, (E)-3,5-dihydroxy-7-(2-methyl-1-oxo-4-phenyl-1,2-dihydroisoquinolin-3-yl)hept-6-enoic acid]
inhibition at 2 µg/mL: 5% | inhibition at 20 µg/mL: 65%

CC(C)c1c(/C=C/[C@@H]2C[C@@H](O)CC(O)O2)n(-c2ccc(F)cc2)c(=O)c2ccccc12 (mixture of isomers) [Compound M, (2RS,4R,6S)-(E)-2,4-dihydroxy-6-[2-(2-(4-fluorophenyl)-4-isopropyl-1-oxo-1,2-dihydroisoquinolin-3-yl)ethen-1-yl]-3,4,5,6-tetrahydro-2H-pyran]
inhibition at 0.082 µg/mL: 27% | inhibition at 0.25 µg/mL: 18% | inhibition at 0.74 µg/mL: 31% | inhibition at 2.22 µg/mL: 44% | inhibition at 6.66 µg/mL: 56% | inhibition at 20 µg/mL: 72%
